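Five compound concentrations were applied to cells in 96-well plates for 48 hours; endpoints were derived by simple linear interpolation of the resulting dose-response curve. GI50 = concentration required for 50% inhibition of growth.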 Calls of active or inactive are those of the source. Cut-off read from the data, not from the text of the source: active = GI50 up to about 1.1 µM and inactive = higher.
How the values were obtained:
Assay in all cases: NCI anticancer screen, dose series, 48 h
786-0 = test system: 786-0
A498 = test system: A498
A549 = test system: A549
ACHN = test system: ACHN
BT-549 = test system: BT-549
CAKI-1 = test system: CAKI-1
CCRF-CEM = test system: CCRF-CEM
COLO 205 = test system: COLO 205
DU-145 = test system: DU-145
EKVX = test system: EKVX
HCT-116 = test system: HCT-116
HCT-15 = test system: HCT-15
HOP-62 = test system: HOP-62
HOP-92 = test system: HOP-92
HT-29 = test system: HT-29
Hs-578T = test system: Hs-578T
IGROV-1 = test system: IGROV-1
K562 = test system: K562
KM12 = test system: KM12
LOX IMVI = test system: LOX IMVI
M14 = test system: M14
MCF7 = test system: MCF7
MDA-MB-231 = test system: MDA-MB-231
MDA-MB-435 = test system: MDA-MB-435
MDA-N = test system: MDA-N
MOLT-4 = test system: MOLT-4
Malme-3M = test system: Malme-3M
NCI-H23 = test system: NCI-H23
NCI-H460 = test system: NCI-H460
NCI-H522 = test system: NCI-H522
NCI/ADR-RES = test system: NCI/ADR-RES
OVCAR-3 = test system: OVCAR-3
OVCAR-4 = test system: OVCAR-4
OVCAR-5 = test system: OVCAR-5
OVCAR-8 = test system: OVCAR-8
PC-3 = test system: PC-3
RPMI-8226 = test system: RPMI-8226
RXF 393 = test system: RXF 393
SF-268 = test system: SF-268
SF-295 = test system: SF-295
SF-539 = test system: SF-539
SK-MEL-28 = test system: SK-MEL-28
SK-MEL-2 = test system: SK-MEL-2
SK-MEL-5 = test system: SK-MEL-5
SK-OV-3 = test system: SK-OV-3
SN12C = test system: SN12C
SNB-19 = test system: SNB-19
SNB-75 = test system: SNB-75
SR = test system: SR
SW-620 = test system: SW-620
T47D = test system: T47D
TK-10 = test system: TK-10
U-251 = test system: U-251
UACC-257 = test system: UACC-257
UACC-62 = test system: UACC-62
UO-31 = test system: UO-31
HL-60 = test system: HL-60
NCI-H226 = test system: NCI-H226

For `Cc1c[n+]([O-])c2ccccc2[n+]1[O-]`, the GI50 (786-0) was > 100 µM (inactive), the GI50 (A498) was > 100 µM (inactive) and the GI50 (A549) was > 100 µM (inactive). The GI50 (ACHN) was > 100 µM (inactive), the GI50 (BT-549) was > 100 µM (inactive) and the GI50 (CAKI-1) was > 100 µM (inactive). For the same compound, the GI50 (CCRF-CEM) was > 100 µM (inactive), the GI50 (COLO 205) was > 100 µM (inactive) and the GI50 (DU-145) was > 100 µM (inactive). The GI50 (EKVX) was > 100 µM (inactive), the GI50 (HCT-116) was > 100 µM (inactive) and the GI50 (HCT-15) was greater than 100 µM. For the same compound, the GI50 (HOP-62) was > 100 µM (inactive), the GI50 (HOP-92) was > 100 µM (inactive) and the GI50 (HT-29) was > 100 µM (inactive). For the same compound, the GI50 (Hs-578T) was > 100 µM (inactive), the GI50 (IGROV-1) was > 100 µM (inactive) and the GI50 (K562) was > 100 µM (inactive). The GI50 (KM12) was > 100 µM (inactive), the GI50 (LOX IMVI) was > 100 µM (inactive) and the GI50 (M14) was > 100 µM (inactive). For the same compound, the GI50 (MCF7) was > 100 µM (inactive), the GI50 (MDA-MB-231) was > 100 µM (inactive) and the GI50 (MDA-MB-435) was > 100 µM (inactive). For the same compound, the GI50 (MDA-N) was > 100 µM (inactive), the GI50 (MOLT-4) was > 100 µM (inactive) and the GI50 (Malme-3M) was > 100 µM (inactive). For the same compound, the GI50 (NCI-H23) was > 100 µM (inactive), the GI50 (NCI-H460) was > 100 µM (inactive) and the GI50 (NCI-H522) was > 100 µM (inactive). For the same compound, the GI50 (NCI/ADR-RES) was > 100 µM (inactive), the GI50 (OVCAR-3) was > 100 µM (inactive) and the GI50 (OVCAR-4) was > 100 µM (inactive). For the same compound, the GI50 (OVCAR-5) was > 100 µM (inactive), the GI50 (OVCAR-8) was > 100 µM (inactive) and the GI50 (PC-3) was > 100 µM (inactive). For the same compound, the GI50 (RPMI-8226) was > 100 µM (inactive), the GI50 (RXF 393) was > 100 µM (inactive) and the GI50 (SF-268) was > 100 µM (inactive). For the same compound, the GI50 (SF-295) was > 100 µM (inactive), the GI50 (SF-539) was > 100 µM (inactive) and the GI50 (SK-MEL-28) was > 100 µM (inactive). For the same compound, the GI50 (SK-MEL-2) was > 100 µM (inactive), the GI50 (SK-MEL-5) was > 100 µM (inactive) and the GI50 (SK-OV-3) was > 100 µM (inactive). For the same compound, the GI50 (SN12C) was > 100 µM (inactive), the GI50 (SNB-19) was > 100 µM (inactive) and the GI50 (SNB-75) was > 100 µM (inactive). For the same compound, the GI50 (SR) was > 100 µM (inactive), the GI50 (SW-620) was > 100 µM (inactive) and the GI50 (T47D) was > 100 µM (inactive). For the same compound, the GI50 (TK-10) was > 100 µM (inactive), the GI50 (U-251) was > 100 µM (inactive) and the GI50 (UACC-257) was > 100 µM (inactive). The GI50 (UACC-62) was > 100 µM (inactive) and the GI50 (UO-31) was > 100 µM (inactive).
In the case of `C=CCN1C[C@H](C)N([C@H](c2ccc(C(=O)N(CC)CC)cc2)c2cccc(OC)c2)C[C@H]1C` [SNC-80], the GI50 (786-0) is reported as > 100 µM (inactive), the GI50 (A498) is reported as 13 µM (inactive) and the GI50 (A549) is reported as 54.3 µM (inactive). The GI50 (ACHN) was 35.6 µM (inactive), the GI50 (BT-549) was 41.1 µM (inactive) and the GI50 (CAKI-1) was > 100 µM (inactive). The GI50 (COLO 205) was 16.8 µM (inactive), the GI50 (DU-145) was > 100 µM (inactive) and the GI50 (EKVX) was > 100 µM (inactive). For the same compound, the GI50 (HCT-116) was 42.7 µM (inactive), the GI50 (HCT-15) was 70.3 µM and the GI50 (HL-60) was 24.8 µM (inactive). For the same compound, the GI50 (HOP-62) was 74.1 µM (inactive), the GI50 (HOP-92) was 5.11 µM (inactive) and the GI50 (HT-29) was 27.5 µM (inactive). For the same compound, the GI50 (Hs-578T) was 26 µM (inactive), the GI50 (IGROV-1) was 35.2 µM (inactive) and the GI50 (KM12) was 50.8 µM (inactive). For the same compound, the GI50 (M14) was 33.7 µM (inactive), the GI50 (MCF7) was 39.1 µM (inactive) and the GI50 (MDA-MB-231) was 77.8 µM (inactive). For the same compound, the GI50 (MDA-MB-435) was 34.7 µM (inactive), the GI50 (MDA-N) was 53.1 µM (inactive) and the GI50 (MOLT-4) was 27.9 µM (inactive). The GI50 (Malme-3M) was 16.7 µM (inactive), the GI50 (NCI-H226) was 21.4 µM (inactive) and the GI50 (NCI-H23) was 32.7 µM (inactive). The GI50 (NCI-H522) was 36.3 µM (inactive), the GI50 (NCI/ADR-RES) was 39.4 µM (inactive) and the GI50 (OVCAR-3) was 18.3 µM (inactive). The GI50 (OVCAR-4) was 73.8 µM (inactive), the GI50 (OVCAR-5) was > 100 µM (inactive) and the GI50 (OVCAR-8) was > 100 µM (inactive). For the same compound, the GI50 (PC-3) was 31.8 µM (inactive), the GI50 (RPMI-8226) was 29.1 µM (inactive) and the GI50 (SF-268) was 86.5 µM (inactive). For the same compound, the GI50 (SF-295) was 19.9 µM (inactive), the GI50 (SF-539) was 51.5 µM (inactive) and the GI50 (SK-MEL-28) was 69.3 µM (inactive). The GI50 (SK-MEL-2) was > 100 µM (inactive), the GI50 (SK-MEL-5) was 14 µM (inactive) and the GI50 (SK-OV-3) was 75.2 µM (inactive). For the same compound, the GI50 (SN12C) was 64.1 µM (inactive), the GI50 (SNB-19) was > 100 µM (inactive) and the GI50 (SR) was 39.5 µM (inactive). For the same compound, the GI50 (SW-620) was 44.6 µM (inactive), the GI50 (T47D) was 17 µM (inactive) and the GI50 (TK-10) was 48 µM (inactive). For the same compound, the GI50 (U-251) was 44.9 µM (inactive), the GI50 (UACC-257) was 19.5 µM (inactive) and the GI50 (UACC-62) was 34.1 µM (inactive). For the same compound, the GI50 (UO-31) was 62.2 µM (inactive).
